Assay results as given in US20260372305A1, “A METHOD FOR CONTROLLING WEEDS” (SYNGENTA CROP PROTECTION AG, priority 2022, published 2026).

Key:
Assay type in all cases: in vivo
[1] = test system: Amaranthus palmeri, PPO inhibitor sensitive population ('Sensitive'); assay: Postemergence control of PPO inhibitor sensitive Amaranthus palmeri (Example 1); conditions: for use rate achieving complete control (no surviving plants) of the 'sensitive' population / % Survival out of 14 repetitions: postemergence, 14 days after application; for % Survival out of 14 repetitions: Sensitive, Adigor 0.5% by volume
Source text: (§1) The commercial standard PPO inhibitor fomesafen and compound 1 of the present application were applied to two Amaranthus palmeri populations in order to determine the impact of mutations at amino acid 98 in PPX2L from the wild-type arginine to a glycine.
(§2) The two A. palmeri populations used were as follows: a known PPO inhibitor sensitive population (‘Sensitive’), a population of which each individual was known to be homozygous for a glycine at amino acid 98 in the protoporphyrinogen oxidase gene PPX2L (‘98GG’).
(§3) Seeds were sown in seed trays containing ericaceous compost and covered with vermiculite. When approximately 1 inch in height plants were transplanted 1 per pot into 3-inch diameter pots containing ericaceous compost. The pots were watered and maintained in a glasshouse providing a 16 H photoperiod of 180 μmol m^−2 s^−1 with 24 °C daytime temperatures and 18 °C night-time temperatures and 65% relative humidity until 3 inches tall at which point the herbicides were applied at the use rates specified in Table 1 below to 14 individual plants per rate of each of the biotypes.
(§4) All treatments were applied as dilutions in reverse osmosis water and with the commercial adjuvant Adigor® at 0.5% by volume. Prior to dilution with water compound 8 was initially dissolved to a 5% solution in a solvent mixture comprising 11.12% Emulsogen EL 360, 44.44% Dowanol DPM and 44.44% N-methyl pyrrolidone. Herbicide applications were carried out in a track sprayer with a flat fan nozzle applying the herbicide treatments at a rate of 200 L/ha^−1.
(§5) After treatment, the plants were watered and maintained in a glasshouse providing a 16 H photoperiod of 180 μmol m^−2 s^−1 with 24 °C daytime temperatures and 18 °C night-time temperatures and 65% relative humidity until 14 days after application at which point they were assessed on a ‘dead or alive’ basis. The plants still alive at this point were classed as surviving the herbicide application and the averaged results of this assessment are presented in Table 1.

[2] = test system: Amaranthus palmeri, homozygous for glycine at amino acid 98 in PPX2L ('98GG', R98G); assay: Postemergence control of Amaranthus palmeri with R98G mutation in PPX2L (Example 1); conditions: for % Survival out of 14 repetitions: R98G, postemergence, 14 days after application, Adigor 0.5% by volume
Source text: as §1, §2, §3, §4, §5

[3] = test system: Amaranthus tuberculatus, Sensitive; assay: Postemergence control of sensitive population (Example 2); conditions: Agridex 1% by volume

In the case of `CCOC(=O)[C@]1(C)CC(c2cc(-n3c(=O)n(C)c(=S)n(C)c3=O)c(F)cc2Cl)=NO1` [compound 1, ethyl (5S)-3-[2-chloro-5-(3,5-dimethyl-2,6-dioxo-4-thioxo-1,3,5-triazinan-1-yl)-4-fluoro-phenyl]-5-methyl-4H-isoxazole-5-carboxylate], the “ability for controlling the 'sensitive' population compared with fomesafen” value ([1]; 'sensitive' population, compared with fomesafen) is reported as “improved ability compared with fomesafen for controlling the ‘sensitive’ population”, the “use rate achieving complete control (no surviving plants) of the 'sensitive' population” value ([1]; 'sensitive' population) is reported as no less than 16 g ai/ha^−1 and the “% Survival out of 14 repetitions” value ([1]; 0.5 g ai/ha^−1) is reported as 100%. For the same compound, the “% Survival out of 14 repetitions” value ([1]; 1 g ai/ha^−1) was 100%, the “% Survival out of 14 repetitions” value ([1]; 2 g ai/ha^−1) was 86% and the “% Survival out of 14 repetitions” value ([1]; 4 g ai/ha^−1) was 43%. The “% Survival out of 14 repetitions” value ([1]; 8 g ai/ha^−1) was 7%, the “% Survival out of 14 repetitions” value ([1]; 16 g ai/ha^−1) was 0% and the “% Survival out of 14 repetitions” value ([1]; 32 g ai/ha^−1) was 0%. The “% Survival out of 14 repetitions” value ([1]; 64 g ai/ha^−1) was 0%, the “control of '98GG'” value ([2]; '98GG', 16 g ai/ha^−1 rate, compared with fomesafen) was “better control of ‘98GG’” and the “% Survival out of 14 repetitions” value ([2]; 0.5 g ai/ha^−1) was 100%. For the same compound, the “% Survival out of 14 repetitions” value ([2]; 1 g ai/ha^−1) was 100%, the “% Survival out of 14 repetitions” value ([2]; 2 g ai/ha^−1) was 100% and the “% Survival out of 14 repetitions” value ([2]; 4 g ai/ha^−1) was 100%. For the same compound, the “% Survival out of 14 repetitions” value ([2]; 8 g ai/ha^−1) was 100%, the “% Survival out of 14 repetitions” value ([2]; 16 g ai/ha^−1) was 79% and the “% Survival out of 14 repetitions” value ([2]; 32 g ai/ha^−1) was 79%. The “% Survival out of 14 repetitions” value ([2]; 64 g ai/ha^−1) was 21%, the “% Survival out of 14 repetitions” value ([3]; 0.5 g ai/ha^−1, 14 days after application) was 100% and the “% Survival out of 14 repetitions” value ([3]; 1 g ai/ha^−1, 14 days after application) was 100%. For the same compound, the “% Survival out of 14 repetitions” value ([3]; 2 g ai/ha^−1, 14 days after application) was 86%, the “% Survival out of 14 repetitions” value ([3]; 4 g ai/ha^−1, 14 days after application) was 43% and the “% Survival out of 14 repetitions” value ([3]; 8 g ai/ha^−1, 14 days after application) was 14%. The “% Survival out of 14 repetitions” value ([3]; 16 g ai/ha^−1, 14 days after application) was 0%, the “% Survival out of 14 repetitions” value ([3]; 32 g ai/ha^−1, 14 days after application) was 0% and the “% Survival out of 14 repetitions” value ([3]; 64 g ai/ha^−1, 14 days after application) was 0%.

For `CS(=O)(=O)NC(=O)c1cc(Oc2ccc(C(F)(F)F)cc2Cl)ccc1[N+](=O)[O-]` [fomesafen, reference compound], the “use rate achieving complete control (no surviving plants) of the 'sensitive' population” value ([1]; 'sensitive' population) was no less than 64 g ai/ha^−1, the “% Survival out of 14 repetitions” value ([1]; 1 g ai/ha^−1) was 100% and the “% Survival out of 14 repetitions” value ([1]; 2 g ai/ha^−1) was 100%. For the same compound, the “% Survival out of 14 repetitions” value ([1]; 4 g ai/ha^−1) was 86%, the “% Survival out of 14 repetitions” value ([1]; 8 g ai/ha^−1) was 71% and the “% Survival out of 14 repetitions” value ([1]; 16 g ai/ha^−1) was 14%. For the same compound, the “% Survival out of 14 repetitions” value ([1]; 32 g ai/ha^−1) was 7%, the “% Survival out of 14 repetitions” value ([1]; 64 g ai/ha^−1) was 0% and the “% Survival out of 14 repetitions” value ([1]; 128 g ai/ha^−1) was 0%. The “% Survival out of 14 repetitions” value ([2]; 1 g ai/ha^−1) was 100%, the “% Survival out of 14 repetitions” value ([2]; 2 g ai/ha^−1) was 100% and the “% Survival out of 14 repetitions” value ([2]; 4 g ai/ha^−1) was 100%. For the same compound, the “% Survival out of 14 repetitions” value ([2]; 8 g ai/ha^−1) was 100%, the “% Survival out of 14 repetitions” value ([2]; 16 g ai/ha^−1) was 100% and the “% Survival out of 14 repetitions” value ([2]; 32 g ai/ha^−1) was 93%. The “% Survival out of 14 repetitions” value ([2]; 64 g ai/ha^−1) was 93% and the “% Survival out of 14 repetitions” value ([2]; 128 g ai/ha^−1) was 93%.
